{"source": "patent US8450278B2", "about": "“MUC18 targeting peptides” (Board of Regents, The University of Texas System, priority 2008, dated 2013)", "tested_on": "B16 melanoma cells", "experiment": "Phage binding assay on B16 melanoma cells pre and post co-culture with B-1 lymphocytes", "type": "cell-based, mouse", "source_text": "The inventors used a random phage library displaying the insert CX7C(C, cysteine; X, any residue) for selection of peptides binding to melanoma cells post co-culture with B-1 lymphocytes (Giordano et al., 2001). As a pre-clearing step, 10^6 B16 cells without exposure to B-1 lymphocytes were detached, washed and resuspended in RPMI containing 2% BSA plus 10^9 transducing units (TU) of unselected phage library. Cells and phage were transferred to the top of a non-miscible organic lower phase (dibutyl phthalate: cyclohexane, 9:1 [v:v]) and centrifuged at 10,000 g for 10 min. The unbound phage population remaining in the aqueous upper phase (pre-cleared library) was collected into a fresh eppendorf tube and incubated with 10^6 B16 cells isolated post co-culture with B-1 lymphocytes. Phage in the organic lower phase were recovered from the cell pellet by bacterial host infection (Pasqualini et al., 2000; Cardo-Vila et al., 2003; Marchio et al., 2004; Marchio et al., 2004; Kolonin et al., 2004; Arap et al, 2004; Hajitou et al., 2006).\nFor phage binding assays to B16 melanoma, 10^6 cells pre and post co-culture with B-1 lymphocytes were incubated with each specific phage clone (10^9 TU) or negative controls. Melanoma cells and phage were centrifuged through the organic phase and the cell-bound phage clones were recovered by bacterial infection (Giordano et al., 2001).", "note": "“Also recorded” adds a separate entry of the source."}
{"sequence": "CLFMRLAWC [SEQ ID NO:1]", "values": [{"measurement": "phage/peptide binding to melanoma cells (in words)", "result": "marked enrichment in phage binding; also recorded: selectively bind to cancerous cells"}]}
